Test results published in article PMC11589101, “Profiling the endocrine-disrupting properties of triazines, triazoles, and short-chain PFAS” (Toxicological Sciences, 2024).

Assays:
[1] = system: H295R cells; test: MTT cell viability assay in H295R cells; format: cell-based, human; conditions: 48 h; for decrease in cell viability at highest exposure concentration: 25 μM; for highest exposure concentration with <10% decrease in cell viability: H295R cells
Experimental: (§1) For the H295R assay, the culturing and exposure of cells were performed according to OECD Test Guideline No. 456 ([OECD 2011]). All experiments were performed using cells in passages 5 to 10. First, the highest noncytotoxic concentration (<10% decrease in viability) was determined for each compound with MTT assays. Next, the levels of 13 steroid hormones were determined in the medium after exposure of the H295R cells to the highest noncytotoxic concentration using LC-MS/MS. These concentrations were tested in triplicate (n = 3) in 3 independent experiments (N = 3), and all 9 samples were measured in LC-MS/MS. […] These dilution series were tested in 3 independent experiments (N = 3), with triplicate exposures in each of these experiments (n = 3). Supernatants of the triplicate exposures per experiment were pooled after the 48 h of exposure and the 3 pooled samples were measured with LC-MS/MS. This was done to keep the number of LC-MS/MS measurements manageable.
(§2) After 48 h of exposure, the supernatant medium from each well was transferred to the wells of a clean 48-well plate, and that plate was stored at −80 °C for later steroid measurement. MTT assays were performed by adding 500 μl of 0.5 mg/ml MTT (3-(4,5-dimethylthiazol-2-yl)-2,5-diphenyltetrazolium bromide; Sigma-Aldrich) solution in medium to each well of the 24-well cell culture plate and incubating for 1 h at 37 °C with 5% CO2. After incubation, the MTT solution was discarded and 500 μl of DMSO was added to each well to lyse the cells and dissolve the formazan crystals. Plates were shaken at 700 rpm for 10 min and absorbance was measured at 560 nm wavelength. Concentrations causing >10% decrease in cell viability were excluded from the hormone analysis, and test compounds were retested at a lower concentration.

[2] = target: T1, human transthyretin (TTR) (Homo sapiens, UniProt P02766); test: FITC-T4 TTR-binding assay, initial (original) method
Experimental: (§3) All incubations were performed at room temperature.
(§4) Fluorescence enhancement was determined for each well by subtracting its relative fluorescence units (RFU) before TTR addition from its RFUs after TTR addition. The resulting values were normalized to percentages of the vehicle control. A concentration–response curve was fitted through the data using the same model as in the reporter gene assays.
After 15 min of incubation, fluorescence was measured and fluorescence enhancement was calculated by subtracting RFU without TTR from RFU with TTR. Further data analysis was similar to the screening assays.

[3] = target: T1, human transthyretin (TTR); test: FITC-T4 TTR-binding assay, screening method
Experimental: as §3
In the screening tests, 48 μl of Tris-HCl buffer (pH 8.0) was added to each well of black low-binding 96-well plates. Two microliters of each test compound dissolved in their respective solvent was added to each well and the plate was shaken at 600 rpm for 5 min. […] Fluorescence was measured again to check for possible autofluorescence or quenching by the test compound.
as §4

[4] = system: steroidogenesis in H295R cells; format: cell-based, human; conditions: 48 h; for effect on steroid hormone levels compared with vehicle-treated controls / increased levels of 17α-OH-progesterone compared with vehicle-treated controls: highest noncytotoxic exposure concentration; for increased levels of progesterone and 17α-OH-progesterone compared with vehicle-treated controls: H295R
Experimental: as §1, with “All” for “For the H295R assay, the culturing and exposure of cells were performed according to OECD Test Guideline No. 456 ([OECD 2011]). All”
The exposure medium was prepared by diluting stock solutions 1,000× in the cell culture medium to obtain a final concentration of 0.1% of the solvent. Exposure was started by replacing cell culture medium with the exposure medium. […] On a separate quality control plate, cells were exposed to 10 μM forskolin (Sigma-Aldrich) and 1 μM prochloraz (Sigma-Aldrich) to serve as positive control for increased and decreased steroid hormone secretion, respectively. Exposure was started by replacing the culture medium in the cell culture plates with the exposure medium.
as §2, with “wavelength.” for “wavelength. Concentrations causing >10% decrease in cell viability were excluded from the hormone analysis, and test compounds were retested at a lower concentration.”
Hormones were concentrated from supernatants by solid phase extraction using Bond Elut Plexa cartridges, 30 mg sorbent, 1.8 ml (Agilent Technologies, Santa Clara, CA, United States). The cartridges were conditioned with 1 ml of 0.5% formic acid in methanol, and subsequent addition of 1 ml of 0.5% formic acid in water. A mix of 100 μl of H295R medium sample in 1 ml of 2% formic acid in water and 50 μl of isotopically labeled internal standards mix (Table S1) was loaded on the cartridges. These were then washed with 1 ml of water followed by 1 ml of water–methanol mixture (70:30, v/v). Cartridges were dried by vacuum and the hormones were eluted with 700 μl of methanol into 96-well-deep well polypropylene plates. Eluates were evaporated to dryness during approximately 2 h in a refrigerated CentriVap vacuum concentrator and reconstituted in 150 μl of water–methanol mixture (1:1, v/v). Additionally, a serial 12-point dilution series of a mix of native steroid hormones was prepared to fit a calibration curve in order to quantify steroid concentrations.
The steroid hormones were separated prior to MS measurements on a Kinetex C18 LC Column (2.6 μm, 100 × 2.1 mm; Phenomenex, CA, United States) coupled to an Exion LC system (SCIEX, Framingham, MA, United States). The mobile phase consisted of 0.2 mM NH4F in water and pure methanol and was delivered at a flow rate of 0.6 ml/min in a gradient elution mode. The injection volume was 10 μl.
The LC-MS/MS raw data were processed using AB Sciex OS Analyst version 1.6.2 (SCIEX, Framingham, MA, United States) to calculate fold changes by dividing the measured hormone concentrations by the hormone concentrations in the vehicle controls. The fold changes were used to fit a concentration–response curve in GraphPad Prism using the same model as in the reporter gene assays, and the ECIR1.5 was estimated for each compound.

[5] = system: VM7Luc4E2 cells; test: Resazurine cell viability assay in VM7Luc4E2 cells; format: cell-based, human; conditions: 100 μM, 24 h
[6] = system: AR-Ecoscreen-GR-KO M1 cells; test: Resazurine cell viability assay in AR-Ecoscreen-GR-KO M1 cells; conditions: 100 μM, 24 h
Experimental: The cell culture medium was discarded and replaced with 100 μl of fresh assay medium. […] Exposure conditions (24 h; 37 °C; 5% CO2), resazurine assay, and luciferase measurements were similar to described for the VM7Luc4E2 cells.

[7] = system: GH3.TRE cells; test: Resazurine cell viability assay in GH3.TRE cells
Experimental: Exposure medium was added to the cells immediately after seeding. […] Exposure conditions, resazurine assay, and luciferase measurements were similar as described for the VM7Luc4E2 cells.

[8] = system: thyroid hormone receptor (TR); test: TR-Luc reporter gene assay, antagonism (coexposure with 110 pM T3); format: cell-based; conditions: for TR antagonism % max combined: coexposure with 110 pM T3; for IC50 / TR antagonism IC10: GH3.TRE cells, coexposed with 110 pM T3, 24 h

## Nc1nc(N)[nH]c(=O)n1 [Ammeline]
[1]
  decrease in cell viability at highest exposure concentration: ≤ 10%

## CC(C)(C)C(O)C(Oc1ccc(-c2ccccc2)cc1)n1cncn1 (centres unmarked) [Bitertanol]
[2]
  IC50: 62.7 µM
[2]; 0.1 uM
  % FITCT4 bound to TTR: 93.4196%
[2]; 0.3 uM
  % FITCT4 bound to TTR: 88.4453%
[2]; 1 uM
  % FITCT4 bound to TTR: 84.7037%
[2]; 3 uM
  % FITCT4 bound to TTR: 79.29%
[2]; 10 uM
  % FITCT4 bound to TTR: 64.391%
[2]; 30 uM
  % FITCT4 bound to TTR: 52.4704%
[2]; 100 uM
  % FITCT4 bound to TTR: 49.6904%
[2]; initial method, 110 nM FITC-T4, 30 nM TTR
  IC10 competing with FITC-T4 for binding to TTR: 0.22 µM
[3]
  IC50: 20.5 µM
[4]
  effect on steroid hormone levels compared with vehicle-treated controls: decreased levels of androgens
[5]
  decrease in viability: more than 10%
[6]
  cytotoxicity in the resazurine assay: significant cytotoxicity
[7]; 100 μM
  cytotoxicity: More than 10%

## CC(C1CC1)C(O)(Cn1cncn1)c1ccc(Cl)cc1 (centres unmarked) [Cyproconazole]
[4]
  increased levels of progesterone and 17α-OH-progesterone compared with vehicle-treated controls: up to 3.5 fold
  effect on steroid hormone levels compared with vehicle-treated controls: increased levels of progesterone and decreased levels of androgens, estrogens, and corticosteroids
[7]; rat, 24 h, 100 μM
  cytotoxicity: More than 10%

## N#CC(CCc1ccc(Cl)cc1)(Cn1cncn1)c1ccccc1 (centres unmarked) [Fenbuconazole]
[4]
  effect on steroid hormone levels compared with vehicle-treated controls: decreased levels of androgens, estrogens, and corticosteroids
  increased levels of 17α-OH-progesterone compared with vehicle-treated controls: more than 8 fold
[5]
  decrease in viability: more than 10%
[6]
  cytotoxicity in the resazurine assay: significant cytotoxicity
[7]; 30 and 100 μM
  cytotoxicity: More than 10%

## CCCC1COC(Cn2cncn2)(c2ccc(Cl)cc2Cl)O1 (centres unmarked) [Propiconazole]
[8]; 0.3 uM
  TR antagonism % max combined: 96.03%
[8]; 1 uM
  TR antagonism % max combined: 99.85%
[8]; 3 uM
  TR antagonism % max combined: 100.91%
[8]; 10 uM
  TR antagonism % max combined: 76.92%
[8]; 30 uM
  TR antagonism % max combined: 33.08%
[8]
  IC50: 20.1 µM
  TR antagonism IC10: 6.1 µM
[4]
  effect on steroid hormone levels compared with vehicle-treated controls: no effect on androgen levels, but showed decreased levels of corticosteroids
  increased levels of 17α-OH-progesterone compared with vehicle-treated controls: more than 8 fold
[6]
  cytotoxicity in the resazurine assay: significant cytotoxicity
[7]; 100 μM
  cytotoxicity: More than 10%

## CC(C)(C)C(O)(CCc1ccc(Cl)cc1)Cn1cncn1 (centres unmarked) [Tebuconazole]
[4]
  increased levels of progesterone and 17α-OH-progesterone compared with vehicle-treated controls: up to 3.5 fold
  effect on steroid hormone levels compared with vehicle-treated controls: increased levels of progesterone and decreased levels of androgens, estrogens, and corticosteroids
[6]
  cytotoxicity in the resazurine assay: significant cytotoxicity
[7]; 100 μM
  cytotoxicity: More than 10%
[1]
  highest exposure concentration with <10% decrease in cell viability: 30 µM

## FC(F)C(F)(F)OCC(Cn1cncn1)c1ccc(Cl)cc1Cl (centres unmarked) [Tetraconazole]
[4]
  increased levels of progesterone and 17α-OH-progesterone compared with vehicle-treated controls: up to 3.5 fold
  effect on steroid hormone levels compared with vehicle-treated controls: increased levels of progesterone and decreased levels of androgens, estrogens, and corticosteroids
[7]; rat, 24 h, 100 μM
  cytotoxicity: More than 10%
[1]
  highest exposure concentration with <10% decrease in cell viability: 30 µM

## CC(C)(C)C(O)C(Oc1ccc(Cl)cc1)n1cncn1 (centres unmarked) [Triadimenol]
[8]; 0.3 uM
  TR antagonism % max combined: 102.48%
[8]; 1 uM
  TR antagonism % max combined: 98.41%
[8]; 3 uM
  TR antagonism % max combined: 105.58%
[8]; 10 uM
  TR antagonism % max combined: 76.69%
[8]; 30 uM
  TR antagonism % max combined: 36.13%
[8]
  IC50: 21.3 µM
  TR antagonism IC10: 6.3 µM
[4]
  effect on steroid hormone levels compared with vehicle-treated controls: decreased estrogen and corticosteroid levels
[7]; rat, 24 h, 100 μM
  cytotoxicity: More than 10%

## NC(Cn1cncn1)C(=O)O (centres unmarked) [Triazole alanine]
[1]
  decrease in cell viability at highest exposure concentration: ≤ 10%
